{"source": "paper PMC8834506", "about": "“Optimization of Thymidine Kinase-Based Safety Switch for Neural Cell Therapy” (Cells, 2022)", "assay_in_all_cases": "ATP-based cell survival assay, GCV-induced cell death", "key": {"[1]": {"tested_on": "hESC (HS420) expressing Ki67-30-GMK", "details": "Homo sapiens, 96 h, read-out: EC50 of GCV (cell survival)", "procedure": "(§1) Our first generation of suicide gene was engineered with the wild type thymidine kinase (wt-TK). To improve the suicide gene efficacy, we investigated different TK variants; wt-TK, 30-GMK, SR39, SR39h, and SR39h D116E variants. These sequences were chosen based on the analysis of the literature investigating HSV1-TK variants, as well as a gain of function mutation in the CMV UL-97 kinase. The efficacy of each variants was determined as percentage of cell survival following prodrug treatment compared to non-treated hESC. For this purpose, we used the ATP-based assay, which measures cellular ATP content and thereby provides a reliable estimate of the number of healthy cells. […]\n(§2) Figure 1 EC50 of ganciclovir (GCV) in cell expressing different thymidine kinase (TK) variants. […] Number of surviving cells was monitored using bioluminescent ATP-based assay. […]\n(§3) Cell culture plate (96 wells plate Corning #3907, Corning, Lonay, Switzerland) were pre-coated with 60 μL per well of Poly-L-ornithine solution (Sigma, Merk, Eysins, Switzerland) at 37 °C for 30 min. […] For EC50 assays, the medium was changed daily for 4 days, then cell viability was assessed using an ATP-based assay. EC50 values for each construct were calculated using a four parameters equation (GraphPad, Prism8, San Diego, CA, USA). […]"}, "[2]": {"tested_on": "hESC (HS420) expressing Ki67-wt-TK", "details": "Homo sapiens; 96 h GCV exposure; wt-TK under Ki67 promoter", "procedure": "as §1, §2, §3"}, "[3]": {"tested_on": "hESC (HS420) expressing Ki67-SR39", "set-up": "species or system human", "details": "for EC50: Homo sapiens", "procedure": "Our first generation of suicide gene was engineered with the wild type thymidine kinase (wt-TK). To improve the suicide gene efficacy, we investigated different TK variants; wt-TK, 30-GMK, SR39, SR39h, and SR39h D116E variants. These sequences were chosen based on the analysis of the literature investigating HSV1-TK variants, as well as a gain of function mutation in the CMV UL-97 kinase. The efficacy of each variants was determined as percentage of cell survival following prodrug treatment compared to non-treated hESC. For this purpose, we used the ATP-based assay, which measures cellular ATP content and thereby provides a reliable estimate of the number of healthy cells. The 50% effective concentration (EC50) was defined as the drug concentration required to reduce the percentage of cell survival by 50%. […] In order to optimize our system, we first replaced the wt-TK by the 30-GMK variant, which is a fusion between the 30 TK variant and guanylate kinase (GMK). Note that GMK is mediating the second phosphorylation step of antiviral nucleoside analogs. […] Microbial codon usage might not yield optimal results in human cells. We therefore adapted the SR39 sequence to a typical human codon usage. For this purpose, 218 of the total 376 codons of the SR39 sequence were changed (for details see Supplementary Sequence 1 and Method section). We will refer to this sequence as the SR39h variant.\nas §2, §3"}}, "note": "Read-outs that look alike come from different tables or passages of the source.", "data": [{"smiles": "Nc1nc(O)c2ncn(COC(CO)CO)c2n1", "note": "[GCV, ganciclovir]", "values": [{"measurement": "EC50", "setting": "[1]", "value": 110, "unit": "nM"}, {"measurement": "EC50", "setting": "[2]", "value": 96, "unit": "nM"}, {"measurement": "Fold increase compare to wt-TK (fold reduction in EC50)", "setting": "[3]; GCV EC50 ratio, Ki67-SR39 vs wt-TK", "value": 50, "unit": "fold"}, {"measurement": "EC50", "setting": "[3]; 96 h, read-out: EC50 of GCV (cell survival)", "value": 2, "unit": "nM"}, {"measurement": "EC50", "setting": "[3]; 96 h GCV exposure, Ki67-SR39, read-out: GCV EC50", "value": 1.9, "unit": "nM"}]}]}
